# Measurements from paper PMC7313430, “Heme-Dependent ER Stress Apoptosis: A Mechanism for the Selective Toxicity of the Dihydroartemisinin, NSC735847, in Colorectal Cancer Cells” (Frontiers in Oncology, 2020).
# Columns and labels:
# [1] = tested on: PERK, eIF2a, CHOP10, PARP, caspase 3 in FHC cells; experiment: Western blot of ER stress and apoptosis proteins in FHC; type: cell-based, human; settings: 10 μM, 1-16 h
# Method: Western blot analysis was conducted as described previously ([35]). Briefly, the cells were cultured in 100 mm dishes for 48 h before treatment. The cells were then treated as described in the figure legends. For vehicle-treated samples, DMSO was added to serum-free culture medium at a maximum concentration of 0.1% (v/v). After experimentation, the cells were washed twice with phosphate buffer saline (PBS) and then 100 μl of Triton lysis buffer [25 mM HEPES, 100 mM NaCl, 1 mM EDTA, 10% (v/v) glycerol, 1% (v/v) Triton X-100], containing protease and […] inhibitors, was added to the cells. Protein concentrations were determined by using BCA reagents (Thermo Fisher Scientific Inc., IL). Equal concentrations of each sample were loaded onto SDS–PAGE gels and protein bands transferred to nitrocellulose membranes using semi-dry transfer cells (TRANS-BLOTSD; Bio-Rad Laboratories, Hercules, CA). The membranes were incubated for 2 h at room temperature in Odyssey blocking buffer (LI-COR Biosciences, Lincoln, NE). Membranes were then incubated overnight at 4C with primary antibody followed by 1 h of incubation at room temperature with secondary antibody. […] Protein bands were visualized using Odyssey® CLx digital fluorescence imaging system (LI-COR, Lincoln, Nebraska). Band intensities were quantified by using ImageJ software ([36]).
# [2] = tested on: P-PERK, P-eIF2α, CHOP10, PARP, caspase-3, ferritin in HT29 cells; experiment: Western blot of ER stress and apoptosis proteins in HT29; type: cell-based, human
# Method: Western blot analysis was conducted as described previously ([35]). Briefly, the cells were cultured in 100 mm dishes for 48 h before treatment. The cells were then treated as described in the figure legends. For vehicle-treated samples, DMSO was added to serum-free culture medium at a maximum concentration of 0.1% (v/v). After experimentation, the cells were washed twice with phosphate buffer saline (PBS) and then 100 μl of Triton lysis buffer [25 mM HEPES, 100 mM NaCl, 1 mM EDTA, 10% (v/v) glycerol, 1% (v/v) Triton X-100], containing protease and […] inhibitors, was added to the cells. Protein concentrations were determined by using BCA reagents (Thermo Fisher Scientific Inc., IL). Equal concentrations of each sample were loaded onto SDS–PAGE gels and protein bands transferred to nitrocellulose membranes using semi-dry transfer cells (TRANS-BLOTSD; Bio-Rad Laboratories, Hercules, CA). The membranes were incubated for 2 h at room temperature in Odyssey blocking buffer (LI-COR Biosciences, Lincoln, NE). Membranes were then incubated overnight at 4C with primary antibody followed by 1 h of incubation at room temperature with secondary antibody. All primary antibodies were used at a dilution of 1:1,000 except anti-GAPDH and anti-CHOP10 antibodies which were used at 1:10,000 and 1:500 dilutions, respectively. All secondary antibodies were used at a dilution of 1:15,000. Protein bands were visualized using Odyssey® CLx digital fluorescence imaging system (LI-COR, Lincoln, Nebraska). Band intensities were quantified by using ImageJ software ([36]).
# [3] = tested on: intracellular iron in HT29 cells; experiment: Intracellular iron measurement (QuantiChrom kit); type: cell-based, human; settings: HT29, 10 μM, 4, 8 and 16 h
# Method: HT29 cells were plated in 100 mm tissue culture plates for 48 h and then the cells were treated as indicated in the text. The cells were washed twice with PBS and then 100 μl triton lysis buffer (without EDTA) was added. The intracellular iron concentrations were determined using the QuantiChrom iron assay kit (BioAssay Systems; #ab83366) following the manufacturer's instructions. Briefly, iron standards of different concentrations were prepared by diluting the iron standard provided with the kit with distilled water. The diluted standards (50 μL) and sample cell lysates (50 μL) were transferred into a clear flat bottom 96-well-plate. Working reagent was prepared by mixing 20 volumes of reagent A, 1 volume reagent B and 1 volume reagent C provided with the kit. The working reagent (200 μL) was then added to the standard and sample wells. After mixing, the plate was incubated 40 min at room temperature and then the absorbance was measured at 590 nm. The iron concentration in each sample was calculated as described in the kit protocol.
# [4] = tested on: subcutaneous or orthotopic non-small cell lung cancer lesions; settings: athymic nude mice with subcutaneous or orthotopic non-small cell lung cancer lesions; cited from earlier work
smiles,measurement,setting,value
CC1CCC2C(C)C(OCC(COC3OC4OC5(C)CCC6C(C)CCC(C3C)C46OO5)=NO)OC3OC4(C)CCC1C32OO4 (centres unmarked) [compound (3)],"activation of PERK, eIF2a, CHOP10, PARP, caspase 3 in FHC",[1],did not increase the activation
same,CHOP10 expression,"[2]; HT29, 10 μM, 6 and 8 h",marked increase
same,cleavage of PARP,"[2]; HT29, 10 μM, 8 and 16 h",stimulated the cleavage
same,cleavage of caspase-3,"[2]; HT29, 10 μM, 8 and 16 h",stimulated the cleavage
same,"phosphorylation of PERK, increase compared to vehicle-treated cells","[2]; HT-29, 10 μM, 1 and 2 h",more than 7 fold
same,"phosphorylation of eIF2α, increase compared to vehicle-treated cells","[2]; HT-29, 10 μM, 1 and 2 h",more than 7 fold
same,cellular free iron,[3],time-dependent increase in cellular free iron
same,body weight of tumor-bearing mice,[4],did not cause significant changes in the body weight
